Key:
Details in all cases: in vivo
Corn, cultivar “Lorenzo” = assay: Herbicidal post-emergence action, damage to crop plants: corn
Procedure: (§1) Herbicidal Post-emergence Action
(§2) Seeds of monocotyledonous and dicotyledonous weeds and of crop plants are placed in sandy loam soil in plastic pots, covered with soil and cultivated in a greenhouse under good growth conditions.
(§3) Three weeks after sowing, the test plants are treated at the 3-4-leaf stage.
(§4) Stated is the respective degree of damage to the crop plants and the reduction of the damage by the herbicide/safener combinations according to the invention in percent, compared with the herbicide applied alone.

[1] = tested on: Wheat, cultivar “Kanzler”; assay: Herbicidal post-emergence action, damage to crop plants: wheat Kanzler
Procedure: as §1, §2, §3, §4

[2] = tested on: Barley, cultivar “Baronesse”; assay: Herbicidal post-emergence action, damage to crop plants: barley Baronesse
Procedure: as §1, §2, §3, §4

Barley, cultivar “Duett” = assay: Herbicidal post-emergence action, damage to crop plants: barley Duett
Procedure: as §1, §2, §3, §4

Row | Compound | Degree of damage (Corn, cultivar “Lorenzo”) [%] | Degree of damage [1] [%] | Degree of damage [2] [%] | Degree of damage (Barley, cultivar “Duett”) [%]
1 | COC(=O)c1ccccc1S(=O)(=O)NC(=O)N(C)c1nc(C)nc(OC)n1 [herbicide A3.1, tribenuron-methyl] | 10 | 20 |  | 
2 | COC(=O)c1ccccc1S(=O)(=O)NC(=O)Nc1nc(C)nc(OC)n1 [herbicide A1.1, metsulfuron-methyl] | 50 | 10 | 10 | 
3 | COC(=O)c1sccc1S(=O)(=O)NC(=O)Nc1nc(C)nc(OC)n1 [herbicide A2.1, thifensulfuron-methyl] | 20 | 10 |  | 20
4 | COc1nc(C)nc(NC(=O)NS(=O)(=O)c2ccccc2Cl)n1 [herbicide A4.1, chlorsulfuron] | 70 |  | 10 | 
